Measured values: patent US20250069697A1, “AN IMPROVED METHOD TO IDENTIFY NUCLEIC ACID SEQUENCES WITHIN A SET OF SEQUENCES OBTAINED BY A SEQUENCER AND A SYSTEM” (priority 2022, published 2025)

How the values were obtained:
Format in all cases: cell-based
[1] = system: Staphylococcus aureus; experiment: Growth of the isolate in antibiotic mediums, sample 2; details: microorganism isolated in sample 2 (Staphylococcus aureus); grown in antibiotic medium
Description: (§1) Each microorganism was growth in at least two antibiotic mediums, in which the improved method predicted resistance, and at least two antibiotic mediums in which the improved method predicted susceptibility, in order to corroborate the obtained results.

[2] = system: Enterococcus faecalis; experiment: Growth of the isolate in antibiotic mediums, sample 3; details: microorganism isolated in sample 3 (Enterococcus faecalis); grown in antibiotic medium
Description: as §1

[3] = system: Escherichia coli; experiment: Growth of the isolate in antibiotic mediums, sample 5; details: microorganism isolated in sample 5 (Escherichia coli); grown in antibiotic medium
Description: as §1

[4] = system: Klebsiella pneumoniae; experiment: Growth of the isolate in antibiotic mediums, sample 1; details: microorganism isolated in sample 1 (Klebsiella pneumoniae); grown in antibiotic medium
Description: as §1

[5] = system: Staphylococcus epidermidis; experiment: Growth of the isolate in antibiotic mediums, sample 4; details: microorganism isolated in sample 4 (Staphylococcus epidermidis); grown in antibiotic medium
Description: as §1

SMILES	Result [1]	Result [2]	Result [3]	Result [4]	Result [5]
NCC[C@H](O)C(=O)N[C@@H]1C[C@H](N)[C@@H](O[C@H]2O[C@H](CN)[C@@H](O)[C@H](O)[C@H]2O)[C@H](O)[C@H]1O[C@H]1O[C@H](CO)[C@@H](O)[C@H](N)[C@H]1O [Amikacin]	Not resistant	Not resistant	Not resistant	Not resistant	Not resistant
CO/N=C(\C(=O)N[C@@H]1C(=O)N2C(C(=O)O)=C(CSc3nc(=O)c(=O)[nH]n3C)CS[C@H]12)c1csc(N)n1 [Ceftriaxone]	–	–	Resistant	Resistant	Resistant
O=C(O)c1cn(C2CC2)c2cc(N3CCNCC3)c(F)cc2c1=O [Ciprofloxacin]	Resistant	Not resistant	Resistant	Resistant	Resistant
COc1cccc(OC)c1C(=O)N[C@@H]1C(=O)N2[C@@H]1SC(C)(C)[C@@H]2C(=O)O [Methicillin]	Not resistant	–	Not resistant	Not resistant	Not resistant
CC[C@H]1OC(=O)[C@H](C)[C@@H](O[C@H]2C[C@@](C)(OC)[C@@H](O)[C@H](C)O2)[C@H](C)[C@@H](O[C@@H]2O[C@H](C)C[C@H](N(C)C)[C@H]2O)[C@](C)(O)C[C@@H](C)CN(C)[C@H](C)[C@@H](O)[C@]1(C)O [azithromycin]	Resistant	–	–	–	–
